# Biological target: D(1A) dopamine receptor (Bos taurus, UniProt Q95136)
# Assay: In vitro displacement of [3H]- SCH 23390 from the dopamine receptor D1 of bovine striatal membrane
# Conditions: not given
# Sequence of D(1A) dopamine receptor (Q95136 whole entry): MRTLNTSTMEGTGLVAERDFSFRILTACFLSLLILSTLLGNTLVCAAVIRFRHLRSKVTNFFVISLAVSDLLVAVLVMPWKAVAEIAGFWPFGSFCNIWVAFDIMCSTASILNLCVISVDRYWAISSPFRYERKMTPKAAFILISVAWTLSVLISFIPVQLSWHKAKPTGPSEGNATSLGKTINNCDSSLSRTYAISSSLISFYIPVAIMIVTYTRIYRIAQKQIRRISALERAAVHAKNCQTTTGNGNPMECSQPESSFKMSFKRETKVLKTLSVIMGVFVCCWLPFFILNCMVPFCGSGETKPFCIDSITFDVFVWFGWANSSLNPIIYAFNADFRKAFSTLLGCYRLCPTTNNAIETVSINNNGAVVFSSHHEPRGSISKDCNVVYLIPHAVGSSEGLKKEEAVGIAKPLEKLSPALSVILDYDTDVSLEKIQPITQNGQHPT
row,Compound,Ki [nM]
1,COc1ccc(Br)cc1-c1nc(CN2CCN(c3ccccc3)CC2)co1,4850
2,COc1ccc(Br)cc1-c1nc(CN[C@@H]2CCN(Cc3ccccc3)C2)co1,8000
3,COc1ccc(Br)cc1-c1nc(CN(C)C[C@@H]2CCN(Cc3ccccc3)C2)co1,5450
4,c1ccc(-c2nc(CN3CCN(c4ccccc4)CC3)co2)cc1,11500
5,COc1ccc(Br)cc1-c1nc(CNC[C@@H]2CCN(Cc3ccccc3)C2)co1,6750
6,c1ccc(CN2CC[C@@H](CNCc3csc(-c4ccccc4)n3)C2)cc1 (stereo in doubt; 4q),8850
7,c1ccc(CN2CCN(Cc3csc(-c4ccccc4)n3)CC2)cc1,9200
8,COc1ccc(Br)cc1-c1nc(CN2CCN(Cc3ccccc3)CC2)cs1,10500
9,COc1ccc(Br)cc1-c1nc(CNC2CCN(Cc3ccccc3)CC2)co1,12500
10,COc1c(-c2nc(CNC[C@@H]3CCN(Cc4ccccc4)C3)co2)cc(Br)c2ccccc12,100000
11,COc1ccc(Br)cc1-c1nc(CNC2CCN(Cc3ccccc3)CC2)cs1,4500
12,c1ccc(CN2CC[C@@H](CNCc3csc(-c4ccccc4)n3)C2)cc1 (stereo in doubt),13500
13,COc1ccc(Br)cc1-c1nc(CN2CCN(c3ccccc3)CC2)cs1,1250

# Biological target: T1, D(4) dopamine receptor (Homo sapiens, UniProt P21917)
# T1 sequence (P21917 whole entry): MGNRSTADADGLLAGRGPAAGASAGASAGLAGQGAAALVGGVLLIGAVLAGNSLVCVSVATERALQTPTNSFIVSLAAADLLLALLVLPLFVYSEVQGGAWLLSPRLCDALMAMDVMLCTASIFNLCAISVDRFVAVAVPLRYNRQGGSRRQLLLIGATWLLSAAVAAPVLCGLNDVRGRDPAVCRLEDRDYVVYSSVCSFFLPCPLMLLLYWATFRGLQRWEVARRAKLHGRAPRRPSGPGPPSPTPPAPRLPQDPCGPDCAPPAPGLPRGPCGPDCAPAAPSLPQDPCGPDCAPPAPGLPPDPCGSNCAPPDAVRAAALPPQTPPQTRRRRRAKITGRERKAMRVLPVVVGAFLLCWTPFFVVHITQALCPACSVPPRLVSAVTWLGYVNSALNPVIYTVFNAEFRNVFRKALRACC
# Assay: In vitro displacement of [3H]spiperone from the recombinant human dopamine receptor D4 expressed in CHO cells
# Assay type: cell-based
# Conditions: not given
row,Compound,Ki [nM]
1,COc1ccc(Br)cc1-c1nc(CN2CCN(c3ccccc3)CC2)co1,370
2,COc1ccc(Br)cc1-c1nc(CN[C@@H]2CCN(Cc3ccccc3)C2)co1,39
3,COc1ccc(Br)cc1-c1nc(CN(C)C[C@@H]2CCN(Cc3ccccc3)C2)co1,650
4,c1ccc(-c2nc(CN3CCN(c4ccccc4)CC3)co2)cc1,250
5,COc1ccc(Br)cc1-c1nc(CNC[C@@H]2CCN(Cc3ccccc3)C2)co1,20
6,c1ccc(CN2CC[C@@H](CNCc3csc(-c4ccccc4)n3)C2)cc1 (stereo in doubt; 4q),390
7,c1ccc(CN2CCN(Cc3csc(-c4ccccc4)n3)CC2)cc1,590
8,COc1ccc(Br)cc1-c1nc(CN2CCN(Cc3ccccc3)CC2)cs1,370
9,COc1ccc(Br)cc1-c1nc(CNC2CCN(Cc3ccccc3)CC2)co1,390
10,COc1c(-c2nc(CNC[C@@H]3CCN(Cc4ccccc4)C3)co2)cc(Br)c2ccccc12,15500
11,COc1ccc(Br)cc1-c1nc(CNC2CCN(Cc3ccccc3)CC2)cs1,400
12,COc1ccc(Br)cc1-c1nc(CN2CCN(c3ccccc3)CC2)cs1,590

# Same assay, conditions: cho
row,Compound,Ki [nM]
1,c1ccc(CN2CC[C@@H](CNCc3csc(-c4ccccc4)n3)C2)cc1 (stereo in doubt),390

# Biological target: T2, D(2) dopamine receptor (Homo sapiens, UniProt P14416)
# Assay: In vitro displacement of [3H]spiperone from the recombinant human dopamine receptor D2L stably expressed in CHO cells
# Assay type: cell-based
# Conditions: not given
# T2 sequence (P14416 whole entry): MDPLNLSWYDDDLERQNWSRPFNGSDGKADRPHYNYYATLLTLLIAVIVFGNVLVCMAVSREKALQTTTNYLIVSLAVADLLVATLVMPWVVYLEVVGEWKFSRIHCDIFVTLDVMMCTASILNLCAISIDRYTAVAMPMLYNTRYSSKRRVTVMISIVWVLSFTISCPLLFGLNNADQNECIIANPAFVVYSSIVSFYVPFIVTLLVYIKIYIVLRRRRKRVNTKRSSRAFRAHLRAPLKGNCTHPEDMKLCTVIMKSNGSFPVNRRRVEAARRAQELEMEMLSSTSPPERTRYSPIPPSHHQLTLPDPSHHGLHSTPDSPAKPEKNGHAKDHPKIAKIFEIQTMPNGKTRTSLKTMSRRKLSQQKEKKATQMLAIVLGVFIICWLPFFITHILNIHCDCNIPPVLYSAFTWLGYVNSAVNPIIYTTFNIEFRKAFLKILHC
row,Compound,Ki [nM]
1,COc1ccc(Br)cc1-c1nc(CN2CCN(c3ccccc3)CC2)co1,690
2,COc1ccc(Br)cc1-c1nc(CN[C@@H]2CCN(Cc3ccccc3)C2)co1,2450
3,COc1ccc(Br)cc1-c1nc(CN(C)C[C@@H]2CCN(Cc3ccccc3)C2)co1,3800
4,c1ccc(-c2nc(CN3CCN(c4ccccc4)CC3)co2)cc1,3000
5,COc1ccc(Br)cc1-c1nc(CNC[C@@H]2CCN(Cc3ccccc3)C2)co1,510
6,c1ccc(CN2CC[C@@H](CNCc3csc(-c4ccccc4)n3)C2)cc1 (stereo in doubt; 4q),7900
7,c1ccc(CN2CCN(Cc3csc(-c4ccccc4)n3)CC2)cc1,28000
8,COc1ccc(Br)cc1-c1nc(CN2CCN(Cc3ccccc3)CC2)cs1,210
9,COc1ccc(Br)cc1-c1nc(CNC2CCN(Cc3ccccc3)CC2)co1,940
10,COc1c(-c2nc(CNC[C@@H]3CCN(Cc4ccccc4)C3)co2)cc(Br)c2ccccc12,45500
11,COc1ccc(Br)cc1-c1nc(CNC2CCN(Cc3ccccc3)CC2)cs1,195
12,c1ccc(CN2CC[C@@H](CNCc3csc(-c4ccccc4)n3)C2)cc1 (stereo in doubt),7950
13,COc1ccc(Br)cc1-c1nc(CN2CCN(c3ccccc3)CC2)cs1,610

# Biological target: T2, D(2) dopamine receptor
# Assay: In vitro displacement of [3H]spiperone from the recombinant human dopamine receptor D2 short form expressed in CHO cells
# Assay type: cell-based
# Conditions: not given
row,Compound,Ki [nM]
1,COc1ccc(Br)cc1-c1nc(CN2CCN(c3ccccc3)CC2)co1,330
2,COc1ccc(Br)cc1-c1nc(CN[C@@H]2CCN(Cc3ccccc3)C2)co1,2000
3,COc1ccc(Br)cc1-c1nc(CN(C)C[C@@H]2CCN(Cc3ccccc3)C2)co1,3250
4,c1ccc(-c2nc(CN3CCN(c4ccccc4)CC3)co2)cc1,1750
5,COc1ccc(Br)cc1-c1nc(CNC[C@@H]2CCN(Cc3ccccc3)C2)co1,210
6,c1ccc(CN2CC[C@@H](CNCc3csc(-c4ccccc4)n3)C2)cc1 (stereo in doubt; 4q),5050
7,c1ccc(CN2CCN(Cc3csc(-c4ccccc4)n3)CC2)cc1,19500
8,COc1ccc(Br)cc1-c1nc(CN2CCN(Cc3ccccc3)CC2)cs1,85
9,COc1ccc(Br)cc1-c1nc(CNC2CCN(Cc3ccccc3)CC2)co1,630
10,COc1c(-c2nc(CNC[C@@H]3CCN(Cc4ccccc4)C3)co2)cc(Br)c2ccccc12,17500
11,COc1ccc(Br)cc1-c1nc(CNC2CCN(Cc3ccccc3)CC2)cs1,105
12,c1ccc(CN2CC[C@@H](CNCc3csc(-c4ccccc4)n3)C2)cc1 (stereo in doubt),6400
13,COc1ccc(Br)cc1-c1nc(CN2CCN(c3ccccc3)CC2)cs1,440

# Biological target: D(3) dopamine receptor (Homo sapiens, UniProt P35462)
# Assay: In vitro displacement of [3H]spiperone from the cloned human dopamine receptor D3 stably expressed in CHO cells
# Assay type: cell-based
# Conditions: not given
# Sequence of D(3) dopamine receptor (P35462 whole entry): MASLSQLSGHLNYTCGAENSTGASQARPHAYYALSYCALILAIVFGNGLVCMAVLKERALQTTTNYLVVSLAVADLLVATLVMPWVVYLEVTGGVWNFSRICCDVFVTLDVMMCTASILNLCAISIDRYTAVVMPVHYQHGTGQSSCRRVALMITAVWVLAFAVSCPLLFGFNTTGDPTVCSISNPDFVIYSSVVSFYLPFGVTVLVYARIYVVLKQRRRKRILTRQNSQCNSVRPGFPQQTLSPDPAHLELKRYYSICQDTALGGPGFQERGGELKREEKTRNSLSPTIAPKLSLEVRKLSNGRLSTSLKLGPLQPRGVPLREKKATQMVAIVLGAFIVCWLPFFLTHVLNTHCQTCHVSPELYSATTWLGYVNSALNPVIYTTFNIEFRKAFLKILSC
row,Compound,Ki [nM]
1,COc1ccc(Br)cc1-c1nc(CN2CCN(c3ccccc3)CC2)co1,660
2,COc1ccc(Br)cc1-c1nc(CN[C@@H]2CCN(Cc3ccccc3)C2)co1,1700
3,COc1ccc(Br)cc1-c1nc(CN(C)C[C@@H]2CCN(Cc3ccccc3)C2)co1,1200
4,c1ccc(-c2nc(CN3CCN(c4ccccc4)CC3)co2)cc1,3950
5,COc1ccc(Br)cc1-c1nc(CNC[C@@H]2CCN(Cc3ccccc3)C2)co1,83
6,c1ccc(CN2CC[C@@H](CNCc3csc(-c4ccccc4)n3)C2)cc1 (stereo in doubt; 4q),660
7,c1ccc(CN2CCN(Cc3csc(-c4ccccc4)n3)CC2)cc1,5250
8,COc1ccc(Br)cc1-c1nc(CN2CCN(Cc3ccccc3)CC2)cs1,640
9,COc1ccc(Br)cc1-c1nc(CNC2CCN(Cc3ccccc3)CC2)co1,580
10,COc1c(-c2nc(CNC[C@@H]3CCN(Cc4ccccc4)C3)co2)cc(Br)c2ccccc12,5850
11,COc1ccc(Br)cc1-c1nc(CNC2CCN(Cc3ccccc3)CC2)cs1,205
12,c1ccc(CN2CC[C@@H](CNCc3csc(-c4ccccc4)n3)C2)cc1 (stereo in doubt),880
13,COc1ccc(Br)cc1-c1nc(CN2CCN(c3ccccc3)CC2)cs1,1190
